Measured values taken from article PMC11999280, “Design and screening of novel endosomal escape compounds that enhance functional delivery of oligonucleotides in vitro” (Molecular Therapy. Nucleic Acids, 2025).

Legend:
Assay type in all cases: cell-based
[1] = tested on: mCherry-GAL9 expressing U2OS cells; assay: GAL9 recruitment assay, U2OS; conditions: calculated mean from >3 independent exp.
Experimental: (§1) Experiments assessing GAL9 localization as an indicator for endosomal remodeling were performed as previously described[15] using 8× stablemCherry-GAL9 expressing cell lines, SHSY5Y, U2OS, 16HBE, NCI-H358, HuH7, HepG2, HEK293, and HeLa. For mCherry-GAL9 recruitment, 3,000 or 6,500 cells/well (depending upon cell line) were seeded into 384-well CellCarrier Ultra plates 24 h prior to treatment (PerkinElmer, catalog no. 6007558). An Echo 655T acoustic dispenser (Labcyte) was used for EEE dose-response preparation by transferring to the cell plate. At assay endpoints, cells were PBS washed, 4% paraformaldehyde fixed at room temperature […] (VWR, catalog no. 9713.1000), and nuclei stained with PBS +1 μg/mL Hoechst 33342 (Thermo Fisher Scientific, catalog no. H21492).
(§2) Imaging was performed using a spinning-disk confocal microscope (Yokogawa: CV8000) with a ×20w objective (numerical aperture 1.0). Cells and mCherry-GAL9 structure identification and quantification were done using Columbus image-analysis software (PerkinElmer version 2.9.0). Data processing was done using Spotfire (Tibco version 11.4) and Prism (GraphPad version 9.1.0). Image panels were assembled using the FigureJ plugin for FIJI.[43] All mCherry-GAL9 experiments were performed three times (N = 3) with duplicated wells per treatment (n = 2).

[2] = tested on: mCherry-GAL9 expressing HEK293 cells; assay: GAL9 recruitment assay, HEK293; conditions: calculated mean from >3 independent exp.
Experimental: as §1, §2

[3] = tested on: HeLa_Luc705 cells (pLuc/705 splice-switching reporter); assay: Functional 705-SSO delivery, luciferase splice-switching assay; conditions: HeLa-Luc705 + 2 µM SSO, mean from >3 independent experiments
Excerpt: Therefore, next, we functionally screened the SSO delivery in the HeLa_Luc705 reporter cell line. HeLa_Luc705 carries a pLuc/705 splice-switching reporter luciferase gene interrupted by a mutated β-globin intron, which creates a preferentially used cryptic 5′ splice site leading to aberrant splicing. Functional SSO delivery masks the cryptic site, redirecting the splicing machinery to the right splicing site, allowing the measurement of luciferase expression (Figure S1).[25]^,[26]^,[27]^,[28] We used SSO transfection with LF2000 as transfection control and the previously published endosomal escape enhancer CMP05 (here, EEE2) as positive control.[15]
For the assessment of functional SSO therapeutics, a HeLa_Luc705 cell line was grown in DMEM media supplemented with 10% fetal bovine serum (FBS). For most treatments, 10,000 cells/well were seeded in a 96-well plate, 24 h pre-incubated with 1- to 2-μM oligonucleotide, and then treated at the described EEE concentration. At 24 h post-treatment, cells were PBS rinsed and collected for further analysis (treatments and incubation times changed accordingly to the experiment design). Luciferase readout was performed as previously described,[15] using a GloMax 96-well plate microplate luminometer (Promega) immediately after adding 30 μL auto-injected luciferin substrate (Promega Firefly Luciferase Assay System; Thermo Scientific, catalog no. 16174) in a white-walled 96-well plate containing 30 μL 0.1% Triton X-100 (Sigma-Aldrich) cell lysed. Photon exposure time and delay were set to 10 and 2 s after injection. LF2000 was used as the transfection reagent control (Thermo Scientific, catalog no. 11668019). For EEE experiments using 1 or 2 μM SSOs, the control was prepared using lipofection with 100–200 nM SSO; this is to avoid complex induced cell toxicity.
705-SSO was purchased from and synthesized by Integrated DNA Technologies. The 705-SSO sequence was previously published, containing 2′-O-methylated bases and only phosphorothioate-saturated backbone linkages were included.[15] The 705-SSO was high-performance liquid chromatography purified, shipped, and stored in IDTE buffer (10 mM Tris, 0.1 mM EDTA).

[4] = tested on: mCherry-GAL9 expressing NCI-H358 cells; assay: GAL9 recruitment assay, NCI-H358; conditions: calculated mean from >3 independent exp.
Experimental: as §1, §2

[5] = tested on: mCherry-GAL9 expressing HepG2 cells; assay: GAL9 recruitment assay, HepG2; conditions: calculated mean from >3 independent exp.
Experimental: as §1, §2

[6] = tested on: mCherry-GAL9 expressing SHSY5Y cells; assay: GAL9 recruitment assay, SHSY5Y; conditions: calculated mean from >3 independent exp.
Experimental: as §1, §2

[7] = tested on: mCherry-GAL9 expressing HuH7 cells; assay: GAL9 recruitment assay, HuH7; conditions: calculated mean from >3 independent exp.
Experimental: as §1, §2

[8] = tested on: mCherry-GAL9 expressing HeLa cells; assay: GAL9 recruitment assay, HeLa; conditions: calculated mean from >3 independent exp.
Experimental: as §1, §2

[9] = tested on: mCherry-GAL9 expressing 16HBE cells; assay: GAL9 recruitment assay, 16HBE; conditions: calculated mean from >3 independent exp.
Experimental: as §1, §2

SMILES: COc1nn(C2CCN(CCCO)CC2)cc1Nc1ncc(F)c(-n2ccc3c(C#N)cccc32)n1 [EEE12]
- Gal9 response compared to reference ([1]; EEE 0.31 µM): 0.013
- Gal9 response compared to reference ([1]; EEE 0.62 µM): 0.017
- Gal9 response compared to reference ([1]; EEE 1.25 µM): 0.057
- Gal9 response compared to reference ([1]; EEE 2.5 µM): 0.299
- Gal9 response compared to reference ([1]; EEE 5 µM): 0.511
- Gal9 response compared to reference ([1]; EEE 10 µM): 0.588
- Gal9 response compared to reference ([2]; EEE 0.31 µM): 0.023
- Gal9 response compared to reference ([2]; EEE 0.62 µM): 0.122
- Gal9 response compared to reference ([2]; EEE 1.25 µM): 0.432
- Gal9 response compared to reference ([2]; EEE 2.5 µM): 0.716
- Gal9 response compared to reference ([2]; EEE 5 µM): 0.604
- Gal9 response compared to reference ([2]; EEE 10 µM): 0.273
- Luciferase expression compared to reference ([3]; EEE 2.5 - 3 µM): 1.720
- Gal9 response compared to reference ([4]; EEE 0.31 µM): 0.018
- Gal9 response compared to reference ([4]; EEE 0.62 µM): 0.032
- Gal9 response compared to reference ([4]; EEE 1.25 µM): 0.128
- Gal9 response compared to reference ([4]; EEE 2.5 µM): 0.574
- Gal9 response compared to reference ([4]; EEE 5 µM): 0.607
- Gal9 response compared to reference ([4]; EEE 10 µM): 0.422
- Gal9 response compared to reference ([5]; EEE 0.31 µM): 0.008
- Gal9 response compared to reference ([5]; EEE 0.62 µM): 0.010
- Gal9 response compared to reference ([5]; EEE 1.25 µM): 0.038
- Gal9 response compared to reference ([5]; EEE 2.5 µM): 0.146
- Gal9 response compared to reference ([5]; EEE 5 µM): 0.517
- Gal9 response compared to reference ([5]; EEE 10 µM): 0.574
- Gal9 response compared to reference ([6]; EEE 0.31 µM): 0.014
- Gal9 response compared to reference ([6]; EEE 0.62 µM): 0.271
- Gal9 response compared to reference ([6]; EEE 1.25 µM): 0.742
- Gal9 response compared to reference ([6]; EEE 2.5 µM): 0.706
- Gal9 response compared to reference ([6]; EEE 5 µM): 0.575
- Gal9 response compared to reference ([6]; EEE 10 µM): 0.177
- Gal9 response compared to reference ([7]; EEE 0.31 µM): 0.014
- Gal9 response compared to reference ([7]; EEE 0.62 µM): 0.031
- Gal9 response compared to reference ([7]; EEE 1.25 µM): 0.143
- Gal9 response compared to reference ([7]; EEE 2.5 µM): 0.357
- Gal9 response compared to reference ([7]; EEE 5 µM): 0.232
- Gal9 response compared to reference ([7]; EEE 10 µM): 0.103
- Gal9 response compared to reference ([8]; EEE 0.31 µM): 0.005
- Gal9 response compared to reference ([8]; EEE 0.62 µM): 0.015
- Gal9 response compared to reference ([8]; EEE 1.25 µM): 0.195
- Gal9 response compared to reference ([8]; EEE 2.5 µM): 0.550
- Gal9 response compared to reference ([8]; EEE 5 µM): 0.394
- Gal9 response compared to reference ([8]; EEE 10 µM): 0.118
- Gal9 response compared to reference ([9]; EEE 0.31 µM): 0.014
- Gal9 response compared to reference ([9]; EEE 0.62 µM): 0.063
- Gal9 response compared to reference ([9]; EEE 1.25 µM): 0.180
- Gal9 response compared to reference ([9]; EEE 2.5 µM): 0.658
- Gal9 response compared to reference ([9]; EEE 5 µM): 0.681
- Gal9 response compared to reference ([9]; EEE 10 µM): 0.421

SMILES: CCOc1nn(C2CCN(C)CC2)cc1Nc1ncc(F)c(-n2ccc3c(C#N)cccc32)n1 [EEE13]
- Gal9 response compared to reference ([1]; EEE 0.31 µM): 0.014
- Gal9 response compared to reference ([1]; EEE 0.62 µM): 0.011
- Gal9 response compared to reference ([1]; EEE 1.25 µM): 0.010
- Gal9 response compared to reference ([1]; EEE 2.5 µM): 0.014
- Gal9 response compared to reference ([1]; EEE 5 µM): 0.023
- Gal9 response compared to reference ([1]; EEE 10 µM): 0.072
- Gal9 response compared to reference ([2]; EEE 0.31 µM): 0.018
- Gal9 response compared to reference ([2]; EEE 0.62 µM): 0.024
- Gal9 response compared to reference ([2]; EEE 1.25 µM): 0.021
- Gal9 response compared to reference ([2]; EEE 2.5 µM): 0.020
- Gal9 response compared to reference ([2]; EEE 5 µM): 0.032
- Gal9 response compared to reference ([2]; EEE 10 µM): 0.097
- Luciferase expression compared to reference ([3]; EEE 5 µM): 1.314
- Luciferase expression compared to reference ([3]; EEE 1-1.25 µM): 0.743
- Luciferase expression compared to reference ([3]; EEE 2.5 - 3 µM): 0.692
- Gal9 response compared to reference ([4]; EEE 0.31 µM): 0.019
- Gal9 response compared to reference ([4]; EEE 0.62 µM): 0.018
- Gal9 response compared to reference ([4]; EEE 1.25 µM): 0.013
- Gal9 response compared to reference ([4]; EEE 2.5 µM): 0.014
- Gal9 response compared to reference ([4]; EEE 5 µM): 0.015
- Gal9 response compared to reference ([4]; EEE 10 µM): 0.038
- Gal9 response compared to reference ([5]; EEE 0.31 µM): 0.008
- Gal9 response compared to reference ([5]; EEE 0.62 µM): 0.007
- Gal9 response compared to reference ([5]; EEE 1.25 µM): 0.008
- Gal9 response compared to reference ([5]; EEE 2.5 µM): 0.009
- Gal9 response compared to reference ([5]; EEE 5 µM): 0.006
- Gal9 response compared to reference ([5]; EEE 10 µM): 0.007
- Gal9 response compared to reference ([6]; EEE 0.31 µM): 0.014
- Gal9 response compared to reference ([6]; EEE 0.62 µM): 0.015
- Gal9 response compared to reference ([6]; EEE 1.25 µM): 0.012
- Gal9 response compared to reference ([6]; EEE 2.5 µM): 0.013
- Gal9 response compared to reference ([6]; EEE 5 µM): 0.044
- Gal9 response compared to reference ([6]; EEE 10 µM): 0.421
- Gal9 response compared to reference ([7]; EEE 0.31 µM): 0.010
- Gal9 response compared to reference ([7]; EEE 0.62 µM): 0.007
- Gal9 response compared to reference ([7]; EEE 1.25 µM): 0.011
- Gal9 response compared to reference ([7]; EEE 2.5 µM): 0.015
- Gal9 response compared to reference ([7]; EEE 5 µM): 0.012
- Gal9 response compared to reference ([7]; EEE 10 µM): 0.046
- Gal9 response compared to reference ([8]; EEE 0.31 µM): 0.005
- Gal9 response compared to reference ([8]; EEE 0.62 µM): 0.004
- Gal9 response compared to reference ([8]; EEE 1.25 µM): 0.004
- Gal9 response compared to reference ([8]; EEE 2.5 µM): 0.003
- Gal9 response compared to reference ([8]; EEE 5 µM): 0.007
- Gal9 response compared to reference ([8]; EEE 10 µM): 0.023
- Gal9 response compared to reference ([9]; EEE 0.31 µM): 0.009
- Gal9 response compared to reference ([9]; EEE 0.62 µM): 0.011
- Gal9 response compared to reference ([9]; EEE 1.25 µM): 0.010
- Gal9 response compared to reference ([9]; EEE 2.5 µM): 0.013
- Gal9 response compared to reference ([9]; EEE 5 µM): 0.044
- Gal9 response compared to reference ([9]; EEE 10 µM): 0.306
